Measured values: US9562033B2, “Inhibitors of viral replication, their process of preparation and their therapeutical uses” (LABORATOIRE BIODIM, priority 2012, dated 2017)

System: NL4-3 strain of HIV-1
Assay: HIV-1 replication inhibition: cyto-protection of MT4 cells infected with NL4-3 virus (CellTiter-Glo viability assay)
Format: cell-based
Details: Human immunodeficiency virus 1, NL43, 120 h, concentration leading to 50% of cyto-protection, 5 days incubation
Protocol: The antiviral activity, particularly against HIV, of compounds according to the invention is evaluated by the protocol described below.
Preparation of Virus Stock of the NL4-3 Strain of HIV-1
The virus was prepared as described in Lopez et al (Lopez et al, Proc Natl Acad Sci USA., 2006, 103(40):14947-52, by transfecting 2×10^6 293 T cells (CRL-1573, ATCC) with following modifications: 6 μg of NL4-3 proviral DNA molecular clone were mixed with Fugene 6 transfection reagent from Roche, and used according to manufacturer's instructions. Forty eight hours later, transfected cell supernatants were harvested, filtered through 0.45-μm-pore-size filters, quantified for HIV-1 p24 antigen by using a Innotest HIV antigen mAb assay (Ingen) according to manufacturer's instructions, and used in infection experiments.
Preparation of Compounds:
Serial dilutions of compounds to be tested were prepared in complete RPMI medium from 10 mM DMSO stock solutions, and distributed in a volume of 20 µl in 96 well Falcon 353072 Microtest™ tissue culture plate, in order to get 0.5% DMSO final concentration in each well, after the addition of infected cells. Control wells contained also 0.5% DMSO final concentration but no compound.
MT4 cells (from the NIH AIDS Research and Reference Reagent Program) in RPMI complete medium were counted (10×10^6 cells per well in Falcon 353047 Multiwell™ 24 well) and infected for 2 hours at 37°, at a multiplicity of infection (moi) of 0.0001-0.00001. Cells were then centrifuged 3 min at 3000 rpm, and washed two times in 1 ml PBS to remove viruses that have not entered in cells. Infected cells were resuspended in complete RPMI at 1.25×10^6 cells/ml, and 80 µl of infected cells were distributed in each well containing compounds to be tested or control wells. The plates were then incubated at 37° for 5 days.
Assay Used to Measure the Inhibition of HIV Replication by the Compounds
(according to Gregg S. Jones et al., Antimicrobial Agents and Chemotherapy, 2009, 53 (3): 1194-1203).
After 5 days of incubation, […] of CellTiter-Glo reagent (Promega Biosciences, Inc., Madison Wis., USA) were added to each well. Cell lysis was carried out at room temperature during 10 min, 150 μl of lysates were transferred in Packard Optiplate 96 well, and luminescence was read on a Fluoroskan (Thermo Scientific).

First: Cc1sc(-c2ccccc2)c(-c2ccc3c4c(ccnc24)CCO3)c1C(OC(C)(C)C)C(=O)O (centres unmarked) [Example 61, 2-(tert-butoxy)-2-[2-methyl-4-(2,3-dihydropyrano[4,3,2-de]quinolin-7-yl)-5-phenyl-thiophen-3-yl]acetic acid]
Second: Cc1sc(-c2ccncc2)c(-c2ccc3c4c(ccnc24)CCO3)c1C(OC(C)(C)C)C(=O)O (centres unmarked) [Example 74, 2-(tert-butoxy)-2-(2-methyl-4-(2,3-dihydropyrano[4,3,2-de]quinolin-7-yl)-5-(pyridin-4-yl)thiophen-3-yl)acetic acid]
The EC50 of the first is 32-fold lower: 210 nM for the first, 6800 nM for the second.

`Cc1sc(-c2nsc(Cl)c2C)c(C2=CCC(C)(C)CC2)c1C(OC(C)(C)C)C(=O)O` (centres unmarked) [Example 62, 2-(tert-butoxy)-2-{2-methyl-4-[4,4-dimethylcyclohex-1-en-1-yl]-5-(5-chloro-4-methyl-isothiazol-3-yl)thiophen-3-yl}acetic acid] and `Cc1csnc1-c1sc(C)c(C(OC(C)(C)C)C(=O)O)c1C1=CCC(C)(C)CC1` (centres unmarked) [Example 89, 2-(tert-butoxy)-2-{2-methyl-4-[4,4-dimethylcyclohex-1-en-1-yl]-5-(4-methylisothiazol-3-yl)thiophen-3-yl}acetic acid] are within 1.5-fold of each other in EC50: 820 nM for the first, 860 nM for the second.

Compared with `Cc1sc(-c2ccns2)c(C2=CCC(C)(C)CC2)c1C(OC(C)(C)C)C(=O)O` (centres unmarked) [Example 63, 2-(tert-butoxy)-2-{2-methyl-4-[4,4-dimethylcyclohex-1-en-1-yl]-5-(isothiazol-5-yl)thiophen-3-yl}acetic acid], `Cc1ccnc(-c2sc(C)c(C(OC(C)(C)C)C(=O)O)c2C2=CCC(C)(C)CC2)c1` (centres unmarked) [Example 72, 2-(tert-butoxy)-2-{2-methyl-4-[4,4-dimethylcyclohex-1-en-1-yl]-5-(4-methylpyridin-2-yl)thiophen-3-yl}acetic acid] is 2.4-fold higher in EC50: 950 nM for the first, 2300 nM for the second.

First: CCOC(C(=O)O)c1c(C)sc(-c2ccncc2)c1C1=CCC(C)(C)CC1 (centres unmarked) [Example 64, 2-[4-(4,4-dimethylcyclohex-1-en-1-yl)-2-methyl-5-(pyridin-4-yl)thiophen-3-yl]-2-ethoxyacetic acid]
Second: Cc1cccc(-c2sc(C)c(C(OC(C)(C)C)C(=O)O)c2C2=CCC(C)(C)CC2)n1 (centres unmarked) [Example 73, 2-(tert-butoxy)-2-{2-methyl-4-[4,4-dimethylcyclohex-1-en-1-yl]-5-(6-methylpyridin-2-yl)thiophen-3-yl}acetic acid]
The EC50 of the first is 9.7-fold lower: 710 nM for the first, 6900 nM for the second.

Compared with `CCCc1sc(C)c(C(OC(C)(C)C)C(=O)O)c1-c1ccc2c(c1)CCCO2` (centres unmarked) [Example 65], `Cc1sc(-c2cccn2C)c(-c2ccc3c(c2)CCCO3)c1C(OC(C)(C)C)C(=O)O` (centres unmarked) [Example 81, 2-(tert-butoxy)-2-[4-(3,4-dihydro-2H-1-benzopyran-6-yl)-2-methyl-5-(1-methyl-1H-pyrrol-2-yl)thiophen-3-yl]acetic acid] is 1.8-fold higher in EC50: 1400 nM for the first, 2500 nM for the second. The first is the more potent here.

First: Cc1sc(C2CC2)c(C2=CCC(C)(C)CC2)c1C(OC(C)(C)C)C(=O)O (centres unmarked) [Example 66, 2-(tert-butoxy)-2-{2-methyl-4-[4,4-dimethylcyclohex-1-en-1-yl]-5-(cyclopropyl)thiophen-3-yl}acetic acid]
Second: Cc1sc(N2CCCC2=O)c(C2=CCC(C)(C)CC2)c1C(OC(C)(C)C)C(=O)O (centres unmarked) [Example 68, 2-(tert-butoxy)-2-{2-methyl-4-[4,4-dimethylcyclohex-1-en-1-yl]-5-(N-pyrrolidinone)thiophen-3-yl}acetic acid]
The EC50 of the first is 1.7-fold lower: 1100 nM for the first, 1900 nM for the second.

`Cc1sc(-c2ccccc2)c(C2=CCC(C)(C)c3cccnc32)c1C(OC(C)(C)C)C(=O)O` (centres unmarked) [Example 67, 2-(tert-butoxy)-2-[4-(5,5-dimethyl-5,6-dihydroquinolin-8-yl)-2-methyl-5-phenylthiophen-3-yl]acetic acid] and `Cc1sc(-c2ccc(C(=O)N(C)C)cc2)c(C2=CCC(C)(C)CC2)c1C(OC(C)(C)C)C(=O)O` (centres unmarked) [Example 76] are within 1.5-fold of each other in EC50: 2300 nM for the first, 3300 nM for the second.

Going from `CCCc1ccnc(-c2sc(C)c(C(OC(C)(C)C)C(=O)O)c2C2=CCC(C)(C)CC2)c1` (centres unmarked) [Example 71, 2-(tert-butoxy)-2-{2-methyl-4-[4,4-dimethylcyclohex-1-en-1-yl]-5-(4-(n-propyl)pyridin-2-yl)thiophen-3-yl}acetic acid] to `Cc1sc(-c2ccc(S(=O)(=O)N(C)C)cc2)c(C2=CCC(C)(C)CC2)c1C(OC(C)(C)C)C(=O)O` (centres unmarked) [Example 77, 2-(tert-butoxy)-2-[4-(4,4-dimethylcyclohex-1-en-1-yl)-5-[4-(dimethylsulfamoyl)phenyl]-2-methylthiophen-3-yl]acetic acid], the EC50 rises from 1100 nM to 4400 nM (4-fold).

First: Cc1sc(-c2cc(F)c3c(c2)CCCO3)c(-c2cc(F)c3c(c2)CCCO3)c1C(OC(C)(C)C)C(=O)O (centres unmarked) [Example 75, 2-[4,5-bis(8-fluoro-3,4-dihydro-2H-1-benzopyran-6-yl)-2-methylthiophen-3-yl]-2-(tert-butoxy)acetic acid]
Second: Cc1sc(C2=CCOCC2)c(-c2ccc3c(c2)CCCO3)c1C(OC(C)(C)C)C(=O)O (centres unmarked) [Example 78, 2-(tert-butoxy)-2-[4-(3,4-dihydro-2H-1-benzopyran-6-yl)-5-(3,6-dihydro-2H-pyran-4-yl)-2-methylthiophen-3-yl]acetic acid]
The EC50 of the first is 1.8-fold lower: 2400 nM for the first, 4300 nM for the second.

`COc1ccc(-c2sc(C)c(C(OC(C)(C)C)C(=O)O)c2-c2ccc3c(c2)CCCO3)cn1` (centres unmarked) [Example 79, 2-(tert-butoxy)-2-[4-(3,4-dihydro-2H-1-benzopyran-6-yl)-5-(6-methoxypyridin-3-yl)-2-methylthiophen-3-yl]acetic acid] and `COc1cc(-c2sc(C)c(C(OC(C)(C)C)C(=O)O)c2-c2ccc3c(c2)CCCO3)ccn1` (centres unmarked) [Example 84, 2-(tert-butoxy)-2-[4-(3,4-dihydro-2H-1-benzopyran-6-yl)-5-(2-methoxy-pyridin-4-yl)-2-methylthiophen-3-yl]acetic acid] are the same in EC50: 1500 nM for the first, 1500 nM for the second.

Compared with `Cc1sc(-c2cnn(Cc3ccccc3)c2)c(-c2ccc3c(c2)CCCO3)c1C(OC(C)(C)C)C(=O)O` (centres unmarked) [Example 80, 2-[5-(1-benzyl-1H-pyrazol-4-yl)-4-(3,4-dihydro-2H-1-benzopyran-6-yl)-2-methylthiophen-3-yl]-2-(tert-butoxy)acetic acid], `Cc1sc(-c2cnn(C)c2)c(-c2ccc3c(c2)CCCO3)c1C(OC(C)(C)C)C(=O)O` (centres unmarked) [Example 88, 2-(tert-butoxy)-2-[4-(3,4-dihydro-2H-1-benzopyran-6-yl)-2-methyl-5-(1-methyl-1H-pyrazol-4-yl)thiophen-3-yl]acetic acid] is 3.9-fold lower in EC50: 6200 nM for the first, 1600 nM for the second.

First: COC1(C)CC=C(c2c(-c3cnc4c(c3)CCCO4)sc(C)c2C(OC(C)(C)C)C(=O)O)CC1 (centres unmarked) [Example 82, 2-(tert-butoxy)-2-[4-(4-methoxy-4-methylcyclohex-1-en-1-yl)-2-methyl-5-{2H,3H,4H-pyrano[2,3-b]pyridin-6-yl}thiophen-3-yl]acetic acid]
Second: Cc1sc(-c2ccsn2)c(-c2ccc3c(c2)CCCO3)c1C(OC(C)(C)C)C(=O)O (centres unmarked) [Example 86, 2-(tert-butoxy)-2-[4-(3,4-dihydro-2H-1-benzopyran-6-yl)-2-methyl-5-(1,2-thiazol-3-yl)thiophen-3-yl]acetic acid]
The EC50 of the first is 3.7-fold higher: 1000 nM for the first, 270 nM for the second. The second is the more potent here.

`Cc1sc(-c2cc(C(F)(F)F)nn2C)c(-c2ccc3c(c2)CCCO3)c1C(OC(C)(C)C)C(=O)O` (centres unmarked) [Example 83, 2-(tert-butoxy)-2-[4-(3,4-dihydro-2H-1-benzopyran-6-yl)-2-methyl-5-[1-methyl-3-(trifluoromethyl)-1H-pyrazol-5-yl]thiophen-3-yl]acetic acid] and `Cc1sc(-n2cccn2)c(-c2ccc3c(c2)CCCO3)c1C(OC(C)(C)C)C(=O)O` (centres unmarked) [Example 85, 2-(tert-butoxy)-2-[4-(3,4-dihydro-2H-1-benzopyran-6-yl)-2-methyl-5-(1H-pyrazol-1-yl)thiophen-3-yl]acetic acid] are within 1.5-fold of each other in EC50: 1700 nM for the first, 1900 nM for the second.
